# Experiment: Supersaturation (maintenance) test with Nilutamide
# Conditions: phosphate buffer saline with 0.5 wt. % FaSSIF, 37 °C, pH 6.5, aqueous with cosolvent or surfactant or cyclodextrin, kinetic from dmso stock
Molecule,solubility at 30 min [µg/mL],solubility at 90 min [µg/mL],solubility at 180 min [µg/mL]
CC1(C)NC(=O)N(c2ccc([N+](=O)[O-])c(C(F)(F)F)c2)C1=O [Nilutamide],473,364,308

# Experiment: physchem
# Conditions: 37 °C, pH 6.5, aqueous with cosolvent or surfactant or cyclodextrin, kinetic from dmso stock
Molecule,solubility at 30 min [µg/mL],solubility at 90 min [µg/mL],solubility at 180 min [µg/mL]
O=C1NC(=O)C(c2ccccc2)(c2ccccc2)N1 [Phenytoin],75,70,73

# Experiment: not given
# Conditions: pH 6.5
Molecule,c(30 min) concentration of solubilized Nilutamide [mg/L],c(90 min) concentration of solubilized Nilutamide [mg/L],c(180 min) concentration of solubilized Nilutamide [mg/L]
"poly-[(N-isopropylacrylamide)-co-(N,N-dimethylacrylamide)] [Example 1-15]",828,833,848

# Experiment: physchem
# Conditions: 37 °C, pH 6.5, fassif, thermodynamic from solid
row,Molecule,solubility at 4 min [µg/mL]
1,O=C1NC(=O)C(c2ccccc2)(c2ccccc2)N1 [Phenytoin],~50

# Experiment: not given
# Conditions: pH 6.5
# Remark: another data set of the same source
row,Molecule,solubilized drug concentration after continuous decrease
1,"poly-[(N-isopropylacrylamide)-co-(N,N-dimethylacrylamide)] [Example 1-17]",below 200 mg/L

# Experiment: not given
# Conditions: pH 6.5
# Remark: another data set of the same source
Molecule,c(30 min) concentration of solubilized Phenytoin,c(90 min) concentration of solubilized Phenytoin,c(180 min) concentration of solubilized Phenytoin
"poly-[(N,N-diethylacrylamide)-co-(N,N-dimethylacrylamide)] [Example 5-1]",172 mg/L,197 mg/L,137 mg/L
"poly-[(N,N-diethylacrylamide)-co-(N,N-dimethylacrylamide)] [Example 5-2]",319 mg/L,322 mg/L,223 mg/L
"poly-[(N,N-diethylacrylamide)-co-(N,N-dimethylacrylamide)] [Example 5-3]",595 mg/L,413 mg/L,257 mg/L
"poly-[(N,N-diethylacrylamide)-co-(N,N-dimethylacrylamide)] [Example 5-4]",646 mg/L,667 mg/L,591 mg/L
"poly-[(N,N-diethylacrylamide)-co-(N,N-dimethylacrylamide)] [Example 5-5]",348 mg/L,359 mg/L,295 mg/L
"poly-[(N-isopropylacrylamide)-co-(N,N-dimethylacrylamide)] [Example 1-1]","1,208 mg/L","1,024 mg/L","1,104 mg/L"
"poly-[(N-isopropylacrylamide)-co-(N,N-dimethylacrylamide)] [Example 1-3]",992 mg/L,794 mg/L,876 mg/L
"poly-[(N-isopropylacrylamide)-co-(N,N-dimethylacrylamide)] [Example 1-4]","1,066 mg/L",758 mg/L,936 mg/L
"poly-[(N-isopropylacrylamide)-co-(N,N-dimethylacrylamide)] [Example 1-5]",942 mg/L,759 mg/L,823 mg/L
"poly-[(N-isopropylacrylamide)-co-(N,N-dimethylacrylamide)] [Example 1-6]",962 mg/L,649 mg/L,875 mg/L
"poly-[(N-isopropylacrylamide)-co-(N,N-dimethylacrylamide)] [Example 1-7]",156 mg/L,137 mg/L,145 mg/L
"poly-[(N-isopropylacrylamide)-co-(N,N-dimethylacrylamide)] [Example 1-8]",183 mg/L,173 mg/L,184 mg/L
"poly-[(N-isopropylacrylamide)-co-(N,N-dimethylacrylamide)] [Example 1-9]",301 mg/L,266 mg/L,265 mg/L
"poly-[(N-isopropylacrylamide)-co-(N,N-dimethylacrylamide)] [Example 1-10]",392 mg/L,281 mg/L,255 mg/L
"poly-[(N-isopropylacrylamide)-co-(N,N-dimethylacrylamide)] [Example 1-11]",895 mg/L,343 mg/L,300 mg/L
"poly-[(N-isopropylacrylamide)-co-(N,N-dimethylacrylamide)] [Example 1-15]",479 mg/L,455 mg/L,409 mg/L
"poly-[(N-isopropylacrylamide)-co-(N,N-dimethylacrylamide)] [Example 1-16]",413 mg/L,379 mg/L,407 mg/L
